How the values were obtained:
anaesthetised rats = assay: intravenous toxicity in anaesthetised rats; format: in vivo; conditions: intravenously, two anaesthetised rats, ten times the dose giving approximate 50% inhibition of gastric secretion in the anaesthetised rat
Protocol: (§1) No overt toxicity or side effects were noted during the rat or dog tests. The compounds N-cyano-5-(4-[2-propylguanidino]pyrimid-2-yl)valeramidino was administered intravenously to groups of two anaesthetised rats and four conscious mice at doses which were respectively ten times and one hundred times the dose, in mg./kg., which produced an approximate 50% inhibition of gastric secretion in the anaesthetised rat.

conscious mice = assay: intravenous toxicity in conscious mice; format: in vivo, mouse; conditions: intravenously, four conscious mice, one hundred times the dose giving approximate 50% inhibition of gastric secretion in the anaesthetised rat
Protocol: as §1

In the case of `CCCN=C(N)Nc1ccnc(CCCCC(=N)NC#N)n1` [Example 2, N-cyano-5-(4-[2-propylguanidino]pyrimid-2-yl)valeramidine], the toxic symptoms (anaesthetised rats) was “No toxic symptoms” and the toxic symptoms (conscious mice) was “No toxic symptoms”.

Reference: patent US4748165A, “Amidine derivatives” (Imperial Chemical Industries PLC, priority 1981, dated 1988)
